The source made the active and inactive calls. The calls are words filed in the database; no cut-off is given here.
Tests used:
MOLM-13 = assay: Antiproliferative activity against FLT3-ITD-positive human MOLM13 cells assessed as reduction in cell growth after 72 hrs by MTT assay; type: functional, cell-based; settings: MOLM-13, 72 h
L02 = assay: Cytotoxicity against human LO2 cells assessed as cell viability after 72 hrs by MTT assay; type: cell-based; settings: l02, 72 h
[1] = Intrinsic clearance in rat liver microsomes; type: ADME, Microsome
MV4-11 [2] = assay: Induction of apoptosis in human MV4-11 cells assessed as late apoptotic cells at 0.4 uM after 24 hrs by Annexin V FITC/PI staining based flow cytometry analysis (reference value: 1.38%); type: functional
Cytochrome P450 2C19 = Cytochrome P450 2C19 (Homo sapiens, UniProt P33261); assay: Inhibition of CYP2C19 (unknown origin); type: ADME
SET-2 [3] = assay: Antitumor activity against human SET2 cells overexpressing JAK2 V617F mutant xenografted in NOD/SCID mouse assessed as tumor growth inhibition at 60 mg/kg, po qd for 18 days measured every 2 days for 18 days by caliper method relative to control; type: functional; settings: SET-2, po, read-out: TGI
[4] = target: Tyrosine-protein kinase Lck (Homo sapiens, UniProt P06239); assay: Inhibition of recombinant human full length human LCK using KVEKIGEGTYGVV as substrate incubated for 40 mins in presence of [gamma33P]-ATP by scintillation counting based radiometry assay
MV4-11 [5] = assay: Induction of cell cycle arrest in human MV4-11 cells assessed as accumulation at G2/M phase at 0.1 uM after 24 hrs by propidium iodide staining based flow cytometry analysis (reference value: 15.4%); type: functional
[6] = Half life in mouse liver microsomes; type: ADME, Microsome
MV4-11 [7] = assay: Induction of cell cycle arrest in human MV4-11 cells assessed as accumulation at G0/G1 phase at 0.01 uM after 24 hrs by propidium iodide staining based flow cytometry analysis (reference value: 54.49%); type: functional
MV4-11 [8] = assay: Induction of apoptosis in human MV4-11 cells assessed as viable cells at 0.8 uM after 24 hrs by Annexin V FITC/PI staining based flow cytometry analysis (reference value: 96.3%); type: functional; settings: MV4-11, 24 h, read-out: Activity
[9] = Intrinsic clearance in human liver microsomes; type: ADME, Microsome
SET-2 [10] = assay: Antiproliferative activity against human SET2 cells overexpressing JAK2 […] mutant assessed as reduction in cell growth after 72 hrs by MTT assay; type: functional, cell-based; settings: SET-2, 72 h
CDK6/cyclin D3 = CDK6/cyclin D3 (Homo sapiens, UniProt Q00534); assay: Inhibition of recombinant full length human CDK6/CyclinD3 using histone H1 as substrate incubated for 30 mins in presence of [gamma33P]-ATP by scintillation counting based radiometry assay; type: protein-complex assay
MV4-11 [11] = assay: Induction of apoptosis in human MV4-11 cells assessed as late apoptotic cells at 0.8 uM after 24 hrs by Annexin V FITC/PI staining based flow cytometry analysis (reference value: 1.38%); type: functional
MV4-11 [12] = assay: Induction of cell cycle arrest in human MV4-11 cells assessed as accumulation at S phase at 0.05 uM after 24 hrs by propidium iodide staining based flow cytometry analysis (reference value: 30.11%); type: functional
MV4-11 [13] = assay: Antitumor activity against FLT3-ITD positive human MV4-11 cells xenografted in NOD/SCID mouse assessed as tumor growth inhibition at 60 mg/kg, po qd for 14 days measured every 2 days for 14 days by caliper method relative to control; type: functional; settings: MV4-11, po, read-out: TGI
JAK3/JAK1 = JAK3/JAK1 (Homo sapiens, UniProt P23458+P52333); assay: Inhibition of JAK1/JAK3 in human THP-1 cells assessed as reduction in IL-4-induced STAT6 phosphorylation by flow cytometry; type: cell-based
MV4-11 [14] = assay: Induction of apoptosis in human MV4-11 cells assessed as early apoptotic cells at 0.2 uM after 24 hrs by Annexin V FITC/PI staining based flow cytometry analysis (reference value: 2.14%); type: functional
MV4-11 [15] = assay: Induction of apoptosis in human MV4-11 cells assessed as necrotic cells at 1.6 uM after 24 hrs by Annexin V FITC/PI staining based flow cytometry analysis (reference value: 0.18%); type: functional
MV4-11 [16] = assay: Induction of apoptosis in human MV4-11 cells assessed as early apoptotic cells at 0.4 uM after 24 hrs by Annexin V FITC/PI staining based flow cytometry analysis (reference value: 2.14%); type: functional
[17] = Toxicity in NOD/SCID mouse xenografted with human SET2 cells overexpressing JAK2 V617F mutant assessed as animal survival at 30 to 60 mg/kg, po qd for 18 days; type: organism-based; settings: in vivo
MV4-11 [18] = assay: Induction of apoptosis in human MV4-11 cells assessed as necrotic cells at 0.2 uM after 24 hrs by Annexin V FITC/PI staining based flow cytometry analysis (reference value: 0.18%); type: functional
MV4-11 [19] = assay: Induction of cell cycle arrest in human MV4-11 cells assessed as accumulation at G2/M phase at 0.01 uM after 24 hrs by propidium iodide staining based flow cytometry analysis (reference value: 15.4%); type: functional
Cytochrome P450 2E1 = Cytochrome P450 2E1 (Homo sapiens, UniProt P05181); assay: Inhibition of CYP2E1 (unknown origin); type: ADME
SET-2 [20] = assay: Antitumor activity against human SET2 cells overexpressing JAK2 V617F mutant xenografted in NOD/SCID mouse assessed as tumor growth inhibition at 30 mg/kg, po qd for 18 days measured every 2 days for 18 days by caliper method relative to control; type: functional; settings: SET-2, po, read-out: TGI
MV4-11 [21] = assay: Inhibition of JAK2/FLT3 ITD mutant in human MV4-11 cells assessed as reduction in JAK2 phosphorylation at 0.2 uM after 2 hrs by Western blot analysis; type: cell-based
MV4-11 [22] = assay: Antitumor activity against FLT3-ITD-positive human MV4-11 cells xenografted in NOD/SCID mouse assessed as tumor growth inhibition at 30 mg/kg, po qd for 14 days measured every 2 days for 14 days by caliper method relative to control; type: functional; settings: MV4-11, po, read-out: TGI
[23] = target: Receptor-type tyrosine-protein kinase FLT3 (Homo sapiens, UniProt P36888, D835Y); assay: Inhibition of recombinant human FLT3 D835Y mutant (564 to end residues) using EAIYAAPFAKKK as substrate incubated for 40 mins in presence of [gamma33P]-ATP by scintillation counting based radiometry assay
MV4-11 [24] = assay: Induction of apoptosis in human MV4-11 cells assessed as viable cells at 0.2 uM after 24 hrs by Annexin V FITC/PI staining based flow cytometry analysis (reference value: 96.3%); type: functional; settings: MV4-11, 24 h, read-out: Activity
MV4-11 [25] = assay: Inhibition of JAK2/FLT3 ITD mutant in human MV4-11 cells assessed as reduction in FLT3 phosphorylation after 2 hrs by Western blot analysis; type: cell-based
MV4-11 [26] = assay: Induction of cell cycle arrest in human MV4-11 cells assessed as accumulation at S phase at 0.01 uM after 24 hrs by propidium iodide staining based flow cytometry analysis (reference value: 30.11%); type: functional
Cytochrome P450 2D6 = Cytochrome P450 2D6 (Homo sapiens, UniProt P10635); assay: Inhibition of CYP2D6 (unknown origin); type: ADME
MV4-11 [27] = assay: Induction of cell cycle arrest in human MV4-11 cells assessed as accumulation at G0/G1 phase at 0.1 uM after 24 hrs by propidium iodide staining based flow cytometry analysis (reference value: 54.49%); type: functional

Chain of JAK3/JAK1 (P52333 whole entry): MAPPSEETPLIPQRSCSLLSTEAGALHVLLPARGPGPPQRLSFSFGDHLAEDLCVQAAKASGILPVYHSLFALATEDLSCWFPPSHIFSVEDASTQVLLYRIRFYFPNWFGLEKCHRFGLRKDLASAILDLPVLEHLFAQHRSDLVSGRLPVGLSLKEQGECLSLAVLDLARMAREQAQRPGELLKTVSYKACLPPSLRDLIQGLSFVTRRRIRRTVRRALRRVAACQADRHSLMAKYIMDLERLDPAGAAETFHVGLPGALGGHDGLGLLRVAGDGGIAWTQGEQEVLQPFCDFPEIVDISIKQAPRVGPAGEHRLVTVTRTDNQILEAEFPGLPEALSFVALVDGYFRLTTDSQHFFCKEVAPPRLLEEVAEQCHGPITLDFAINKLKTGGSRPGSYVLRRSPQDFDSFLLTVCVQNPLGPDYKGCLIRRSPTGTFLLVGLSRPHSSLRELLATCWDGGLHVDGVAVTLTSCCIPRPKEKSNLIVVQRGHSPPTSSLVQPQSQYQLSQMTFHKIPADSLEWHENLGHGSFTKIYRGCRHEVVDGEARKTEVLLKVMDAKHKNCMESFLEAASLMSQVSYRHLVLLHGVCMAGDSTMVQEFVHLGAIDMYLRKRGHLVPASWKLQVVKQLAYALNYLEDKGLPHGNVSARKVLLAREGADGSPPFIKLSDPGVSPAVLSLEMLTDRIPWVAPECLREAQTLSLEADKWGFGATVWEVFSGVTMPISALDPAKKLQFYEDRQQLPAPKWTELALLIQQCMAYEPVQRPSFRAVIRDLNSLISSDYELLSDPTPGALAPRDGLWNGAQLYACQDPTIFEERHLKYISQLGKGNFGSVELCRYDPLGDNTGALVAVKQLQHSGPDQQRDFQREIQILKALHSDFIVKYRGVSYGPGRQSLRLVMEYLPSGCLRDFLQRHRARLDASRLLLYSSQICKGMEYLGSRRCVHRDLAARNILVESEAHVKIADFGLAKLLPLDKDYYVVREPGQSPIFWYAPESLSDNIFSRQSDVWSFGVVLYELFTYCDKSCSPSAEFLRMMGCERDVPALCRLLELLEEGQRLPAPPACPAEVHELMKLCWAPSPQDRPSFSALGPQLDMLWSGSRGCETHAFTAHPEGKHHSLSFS
Chain of JAK3/JAK1 (P23458 whole entry): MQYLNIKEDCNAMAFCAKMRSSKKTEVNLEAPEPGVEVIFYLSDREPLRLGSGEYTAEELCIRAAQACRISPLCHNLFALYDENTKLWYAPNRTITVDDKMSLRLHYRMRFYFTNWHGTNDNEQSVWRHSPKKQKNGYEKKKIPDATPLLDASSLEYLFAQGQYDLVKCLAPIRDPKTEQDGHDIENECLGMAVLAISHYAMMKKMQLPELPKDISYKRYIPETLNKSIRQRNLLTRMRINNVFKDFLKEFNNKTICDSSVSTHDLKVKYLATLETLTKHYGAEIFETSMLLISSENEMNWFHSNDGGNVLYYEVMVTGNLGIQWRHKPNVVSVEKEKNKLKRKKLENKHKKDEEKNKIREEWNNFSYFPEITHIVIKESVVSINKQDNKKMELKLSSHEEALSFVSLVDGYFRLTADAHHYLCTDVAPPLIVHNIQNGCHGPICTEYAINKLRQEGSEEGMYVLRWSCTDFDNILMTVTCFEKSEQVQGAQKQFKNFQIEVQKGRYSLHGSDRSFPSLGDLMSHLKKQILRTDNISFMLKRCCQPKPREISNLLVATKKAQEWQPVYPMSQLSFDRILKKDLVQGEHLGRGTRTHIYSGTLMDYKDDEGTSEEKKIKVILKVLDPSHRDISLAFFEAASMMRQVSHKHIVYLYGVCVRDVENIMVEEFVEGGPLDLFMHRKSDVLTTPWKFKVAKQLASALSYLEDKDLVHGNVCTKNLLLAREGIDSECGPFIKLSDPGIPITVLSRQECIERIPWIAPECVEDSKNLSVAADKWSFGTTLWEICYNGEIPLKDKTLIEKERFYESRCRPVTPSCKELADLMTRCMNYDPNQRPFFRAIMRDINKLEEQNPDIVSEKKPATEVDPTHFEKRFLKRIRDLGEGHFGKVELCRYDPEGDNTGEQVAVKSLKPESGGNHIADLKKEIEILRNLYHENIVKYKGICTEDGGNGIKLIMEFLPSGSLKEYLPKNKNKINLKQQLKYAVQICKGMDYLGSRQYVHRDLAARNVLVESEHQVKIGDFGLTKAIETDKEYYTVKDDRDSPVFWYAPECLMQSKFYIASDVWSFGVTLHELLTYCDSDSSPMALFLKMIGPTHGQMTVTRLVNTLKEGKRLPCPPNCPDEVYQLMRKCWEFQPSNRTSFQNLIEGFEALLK
Chain of Cytochrome P450 2C19 (P33261 whole entry): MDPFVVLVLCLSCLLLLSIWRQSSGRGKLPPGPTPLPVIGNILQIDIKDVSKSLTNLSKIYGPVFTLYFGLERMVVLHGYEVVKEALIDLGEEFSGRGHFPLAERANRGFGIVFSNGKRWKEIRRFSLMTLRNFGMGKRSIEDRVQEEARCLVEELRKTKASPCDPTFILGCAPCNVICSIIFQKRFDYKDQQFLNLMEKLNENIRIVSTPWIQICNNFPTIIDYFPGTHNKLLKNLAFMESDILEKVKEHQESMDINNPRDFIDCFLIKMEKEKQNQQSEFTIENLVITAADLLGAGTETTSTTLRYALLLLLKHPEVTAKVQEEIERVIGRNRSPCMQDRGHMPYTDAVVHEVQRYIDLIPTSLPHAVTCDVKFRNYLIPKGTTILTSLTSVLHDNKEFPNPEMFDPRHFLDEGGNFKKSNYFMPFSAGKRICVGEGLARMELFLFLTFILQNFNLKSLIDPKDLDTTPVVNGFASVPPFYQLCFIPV
Chain of Tyrosine-protein kinase Lck (P06239 whole entry): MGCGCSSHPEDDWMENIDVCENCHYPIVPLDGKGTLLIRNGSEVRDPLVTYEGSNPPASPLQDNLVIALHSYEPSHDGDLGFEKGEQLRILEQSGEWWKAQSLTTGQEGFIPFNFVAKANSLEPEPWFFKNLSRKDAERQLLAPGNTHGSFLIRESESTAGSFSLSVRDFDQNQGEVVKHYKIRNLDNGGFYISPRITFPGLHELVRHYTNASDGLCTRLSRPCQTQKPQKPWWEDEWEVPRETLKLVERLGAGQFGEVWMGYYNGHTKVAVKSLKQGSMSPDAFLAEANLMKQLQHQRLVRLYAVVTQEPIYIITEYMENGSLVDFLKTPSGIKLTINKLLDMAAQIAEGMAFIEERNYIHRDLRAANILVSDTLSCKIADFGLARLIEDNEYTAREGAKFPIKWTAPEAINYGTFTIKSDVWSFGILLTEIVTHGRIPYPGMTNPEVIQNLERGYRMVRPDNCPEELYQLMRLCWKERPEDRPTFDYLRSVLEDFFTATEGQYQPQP
Chain of Cytochrome P450 2D6 (P10635 whole entry): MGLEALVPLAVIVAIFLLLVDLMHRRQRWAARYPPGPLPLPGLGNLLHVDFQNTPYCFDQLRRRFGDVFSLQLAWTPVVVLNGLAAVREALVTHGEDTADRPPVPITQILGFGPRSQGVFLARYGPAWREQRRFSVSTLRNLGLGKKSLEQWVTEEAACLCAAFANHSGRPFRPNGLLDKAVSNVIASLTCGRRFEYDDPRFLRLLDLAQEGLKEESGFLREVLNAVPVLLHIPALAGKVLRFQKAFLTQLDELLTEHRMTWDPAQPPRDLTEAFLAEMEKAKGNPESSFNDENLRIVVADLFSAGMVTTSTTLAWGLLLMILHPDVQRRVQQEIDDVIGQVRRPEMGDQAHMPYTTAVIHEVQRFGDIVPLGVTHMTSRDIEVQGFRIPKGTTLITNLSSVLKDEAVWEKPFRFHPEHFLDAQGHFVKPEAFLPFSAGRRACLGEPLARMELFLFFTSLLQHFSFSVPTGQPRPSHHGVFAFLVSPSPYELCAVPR
Chain of Cytochrome P450 2E1 (P05181 whole entry): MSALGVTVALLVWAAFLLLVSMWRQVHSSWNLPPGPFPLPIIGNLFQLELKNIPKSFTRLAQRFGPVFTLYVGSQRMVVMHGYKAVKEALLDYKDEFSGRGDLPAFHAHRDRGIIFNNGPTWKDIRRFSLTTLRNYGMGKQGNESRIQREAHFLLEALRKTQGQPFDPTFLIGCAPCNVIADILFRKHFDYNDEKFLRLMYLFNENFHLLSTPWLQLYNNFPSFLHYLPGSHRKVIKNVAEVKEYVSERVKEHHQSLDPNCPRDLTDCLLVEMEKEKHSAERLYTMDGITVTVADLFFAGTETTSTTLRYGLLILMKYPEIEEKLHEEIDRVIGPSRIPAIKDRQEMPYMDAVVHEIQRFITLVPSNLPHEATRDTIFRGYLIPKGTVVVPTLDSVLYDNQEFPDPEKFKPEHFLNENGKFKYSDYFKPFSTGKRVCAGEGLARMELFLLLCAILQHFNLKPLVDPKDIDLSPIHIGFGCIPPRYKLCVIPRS
Chain of CDK6/cyclin D3 (P30281 whole entry): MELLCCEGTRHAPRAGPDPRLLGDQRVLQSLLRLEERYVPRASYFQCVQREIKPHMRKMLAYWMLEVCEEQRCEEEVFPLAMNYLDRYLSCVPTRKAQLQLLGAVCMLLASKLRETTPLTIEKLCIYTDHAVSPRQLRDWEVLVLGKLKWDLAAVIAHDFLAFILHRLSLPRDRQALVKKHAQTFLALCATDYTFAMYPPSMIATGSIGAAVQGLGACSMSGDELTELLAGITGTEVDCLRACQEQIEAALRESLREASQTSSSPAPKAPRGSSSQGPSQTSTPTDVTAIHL
Chain of CDK6/cyclin D3 (Q00534 whole entry): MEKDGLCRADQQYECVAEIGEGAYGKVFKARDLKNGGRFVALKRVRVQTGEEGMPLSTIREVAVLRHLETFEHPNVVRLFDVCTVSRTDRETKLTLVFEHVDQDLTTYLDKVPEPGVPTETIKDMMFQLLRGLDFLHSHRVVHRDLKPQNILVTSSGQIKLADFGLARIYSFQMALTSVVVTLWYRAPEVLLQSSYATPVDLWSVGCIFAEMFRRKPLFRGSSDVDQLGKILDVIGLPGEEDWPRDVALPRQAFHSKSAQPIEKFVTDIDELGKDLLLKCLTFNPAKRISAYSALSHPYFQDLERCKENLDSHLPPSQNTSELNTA

Cc1cnc(Nc2ccc(N3CCC(N(C)CCO)CC3)c(F)c2)nc1-c1cnn(C(C)C)c1
IC50 (MOLM-13): 72 nM
Activity (L02): Non-Toxic
CLH [1]: 0.9 µL/min/mg
Activity (MV4-11 [2]): 26.5%
IC50 (Cytochrome P450 2C19): 74700 nM
inhibition in vivo at 60 mg/kg (SET-2 [3]): 85%
IC50 [4]: 27 nM
Activity (MV4-11 [5]): 5.04%
half-life [6]: 6.42 h
Activity (MV4-11 [7]): 58.55%
viability at 0.8 µM (MV4-11 [8]): 46.4%
CLH [9]: 2.4 µL/min/mg
IC50 (SET-2 [10]): 270 nM
IC50 (CDK6/cyclin D3): 66 nM
Activity (MV4-11 [11]): 29.3%
Activity (MV4-11 [12]): 12.84%
inhibition in vivo at 60 mg/kg (MV4-11 [13]): 93%
IC50 (JAK3/JAK1): 578 nM
Activity (MV4-11 [14]): 11.9%
Activity (MV4-11 [15]): 0.68%
Activity (MV4-11 [16]): 21.2%
survival at 432 h [17]: 100%
Activity (MV4-11 [18]): 0.75%
Activity (MV4-11 [19]): 11.8%
IC50 (Cytochrome P450 2E1): > 100000 nM
inhibition in vivo at 30 mg/kg (SET-2 [20]): 66%
inhibition (MV4-11 [21]): Active
inhibition in vivo at 30 mg/kg (MV4-11 [22]): 58%
IC50 [23]: 4 nM
viability at 0.2 µM (MV4-11 [24]): 77.4%
inhibition (MV4-11 [25]): Dose-dependent effect
Activity (MV4-11 [26]): 29.65%
IC50 (Cytochrome P450 2D6): > 100000 nM
Activity (MV4-11 [27]): 84.71%
